This note sets out measurements from US20160160268A1, “AMDINOCILLIN FOR RAPID DETERMINATION OF SUSCEPTIBILITY TO BETA-LACTAM ANTIBIOTICS” (THE REGENTS OF THE UNIVERSITY OF CALIFORNIA, priority 2013, published 2016).

Holding throughout (assay type): cell-based
The subject of test [1] is lawn of E. coli (strains EC135, EC96, EC103, NDM-1). The test can be described thus: Kirby-Bauer disc diffusion antibiotic-susceptibility test. The source says: FIGS. 15A-15F present digital photomicrographs showing results of Kirby-Bauer disc diffusion antibiotic-susceptibility tests. 6 mm diameter antibiotic discs were placed on agar plates seeded with a lawn of E. coli that were Ampicillin susceptible (strain EC135), Ampicillin resistant (strain EC96), Cefazolin susceptible (strain EC103), Cefazolin resistant (strain EC96), Imipenem susceptible (strain EC103) or Imipenem resistant (strain NDM-1). In each panel the antibiotic disc is on the left and the amdinocillin disc is on the right. Images were obtained after 20 hours of incubation at 37° C.

The test system of test [2] is antibiotic susceptible and resistant E. coli strains. The test can be described thus: Mature rRNA and pre-rRNA response to beta-lactam antibiotics with or without amdinocillin. The note with it: for differentiation of antibiotic-susceptible from antibiotic-resistant bacteria on addition of amdinocillin to the assay: with amdinocillin. As to the method:
As a result of blocking filamentation, levels of mature rRNA and pre-rRNA decrease within 30-45 min when amdinocillin is combined with beta lactam antibiotics. […] For example, at a concentration of 32 μg/ml, cefazolin causes a drop of pre-rRNA within 30 min whether or not amdinocillin is present.
Ampicillin-susceptible E. coli (strain EC135) was treated with ampicillin (16 μg/ml) alone, amdinocillin (1 μg/ml) alone, ampicillin plus amdinocillin, or neither. […] Effects on pre-rRNA were more pronounced than those on mature rRNA.
Ceftriaxone-susceptible E. coli (strain EC103) was treated with ceftriaxone ([…]) alone, amdinocillin ([…]) alone, ceftriaxone plus amdinocillin, or neither. Ceftriaxone-mediated effects on mature rRNA and pre-rRNA occurred 60 min faster with amdinocillin than without amdinocillin.
Cefazolin-susceptible E. coli (strain EC103) was treated with amdinocillin (1 μg/ml) plus cefazolin at concentrations ranging from 0-32 μg/ml.
Graphs illustrating the effects of beta-lactam antibiotics plus amdinocillin on antibiotic susceptible and resistant bacteria can be found in FIGS. 14A-14D. Antibiotic susceptible and resistant bacteria were treated with amdinocillin (1 μg/ml) plus various beta lactam antibiotics including 16 μg/ml cefazolin, 4 μg/ml ceftriaxone, 32 μg/ml piperacillin plus 4 μg/ml tazobactam, and 2 μg/ml imipenem. Differential effects on pre-rRNA of susceptible from resistant bacteria were evident within 30-90 min.

Test [3] deals with E. coli (strain EC103) cells. The test can be described thus: E. coli cell length (filamentation) measurement. On the procedure:
The lengths of ampicillin-susceptible E. coli (strain EC103) cells were measured after treatment for 30 minutes with no antibiotics, ampicillin, or ampicillin plus amdinocillin. Digital photomicrographs of representative cells treated with no antibiotics (16A), ampicillin (16B), and ampicillin plus amdinocillin (16C) are shown.

Test [4] deals with susceptible strain of E. coli. The test can be described thus: Response of pre-rRNA to cefazolin in log phase culture. The note with it: log phase of growth.
For test [5], the system named is E. coli clinical urine isolate EC103. The test is described as follows: Electrochemical sensor assay of mature rRNA and pre-rRNA after adding an antibiotic to a growing culture. The conditions noted are these: for effect on mature rRNA level: 25 μg/ml Chloramphenicol or 16 μg/ml Gentamicin added at 150 or 210 minutes; for effect on pre-rRNA level: 25 μg/ml Rifampicin, 25 μg/ml Chloramphenicol, 4 μg/ml Ciprofloxacin or 16 μg/ml Gentamicin added at 150 or 210 minutes. As to the method:
Overnight cultures of EC103 were prepared by adding 5 μl of EC103 glycerol stock to 5 ml of MH broth with ampicillin and incubated at 37° C. overnight with shaking. […] Every 30 min, including at 0 min and the overnight culture itself, a 1 ml sample was taken for OD600 measurement and 10-fold serial dilutions (100 μl into 900 μl) were performed in room temperature MH broth. Cell density was determined by plating serial dilutions in triplicate. At each time point, culture samples were transferred to an ice water bath or centrifuged immediately at 4° C. for 3 min at 14,000 rpm.
Electrochemical detection.
Each sensor of the array consisted of a 2.5 mm diameter central working electrode, surrounded by an Au counter electrode and an Au pseudo-reference electrode. […] Washing steps were carried out after each application of reagents by applying a stream of deionized H2O to the sensor surface for approximately 2-3 sec followed by 5 sec of drying under a stream of nitrogen. Prior to addition of the first reagent, the bare gold chips were dried as described above. To functionalize the working sensor surface, a fresh mixture of 0.05 μM thiolated capture probe and 300 μM 1,6-hexanedithiol (96%, Sigma, St. Louis, Mo.) was prepared in 10 mM Tris-HCl, 1 mM EDTA and 0.3 M NaCl (pH 8.0) and allowed to stand at room temperature for 10 min. Aliquots of 6 μl of this mixture were cast over each Au working electrode in the 16-sensor array and incubated overnight at 4° C. in a humidified chamber.

A value given as a limit tells only on which side of the number the result lay.

As to `CC1(C)S[C@@H]2[C@H](/N=C/N3CCCCCC3)C(=O)N2[C@H]1C(=O)O` [amdinocillin], in test [1] (ampicillin, cefazolin, imipenem discs, 20 hours at 37° C.), the “synergy between amdinocillin and the antibiotics tested” value is “Synergy was not observed”. Also, the “effect of amdinocillin on susceptibility of bacteria to beta-lactam antibiotics” value in test [1] (disc diffusion) was “did not increase the susceptibility”. For the same compound, the “effect of amdinocillin alone on rRNA or pre-rRNA levels” value in test [2] (amdinocillin alone) was “no effect”. Moreover, the “effect of amdinocillin on recognition of ampicillin susceptibility” value in test [2] (ampicillin 16 μg/ml, amdinocillin 1 μg/ml, strain EC135) is on record as “enabled early recognition of ampicillin susceptibility”. Further, the “effect of amdinocillin on recognition of cefazolin susceptibility” value in test [2] (cefazolin 4 μg/ml, amdinocillin 1 μg/ml, strain EC103) is reported as “enabled early recognition of cefazolin-susceptibility”. Besides, the “effect of amdinocillin on pre-RNA levels” value in test [2] (cefazolin 32 μg/ml, amdinocillin 1 μg/ml, strain EC103) was “no effect”. Besides, the “effect on filamentation caused by beta-lactam antibiotics” value in test [3] was “prevents filamentation”. For the same compound, in test [3] (ampicillin plus amdinocillin, 30 minutes, strain EC103), the “effect on ampicillin-induced increase in cell length” value is “partially blocked”.
For the compound `CC1(C)S[C@@H]2[C@H](NC(=O)[C@H](N)c3ccccc3)C(=O)N2[C@H]1C(=O)O` [ampicillin], in test [2], the “dependence of the amdinocillin effect on the antibiotic concentration” value is listed as “independent of the antibiotic concentration” and the “differentiation of antibiotic-susceptible from antibiotic-resistant bacteria on addition of amdinocillin to the assay” value (shortened to “differentiation”) is on record as “enables rapid differentiation”. Further, the “average increase in length of E. coli cells” value in test [3] (treatment for 30 minutes, strain EC103) is listed as 4 fold.
`Cc1nnc(SCC2=C(C(=O)O)N3C(=O)[C@@H](NC(=O)Cn4cnnn4)[C@H]3SC2)s1` [cefazolin]: in test [2], the “dependence of the amdinocillin effect on the antibiotic concentration” value is “dependent on the antibiotic concentration” and the “differentiation” value is recorded as “enables rapid differentiation”. Further, the “concentration dependence of fall in pre-rRNA levels” value in test [2] (cefazolin 0-32 μg/ml plus amdinocillin 1 μg/ml, strain EC103) is given as “fell more quickly at higher cefazolin concentrations”. Further, the “effect on pre-rRNA” value in test [2] (cefazolin 4 μg/ml) is recorded as “does not cause a drop of pre-rRNA unless amdinocillin is present”. The “time within which pre-rRNA drops” value in test [2] (cefazolin 32 μg/ml, whether or not amdinocillin is present) is not above 30 min. In test [4], the “drop in amount of pre-rRNA compared to culture without antibiotic” value is recorded as “one-log drop” and the “time within which the pre-rRNA drop occurred” value was not above 30 min.
In the case of `CO/N=C(\C(=O)N[C@@H]1C(=O)N2C(C(=O)O)=C(COC(C)=O)CS[C@H]12)c1csc(N)n1` [cefotaxime], the “differentiation” value in test [2] is “enables rapid differentiation”.
With `CO/N=C(\C(=O)N[C@@H]1C(=O)N2C(C(=O)O)=C(CSc3nc(=O)c(=O)[nH]n3C)CS[C@H]12)c1csc(N)n1` [ceftriaxone], the “how much faster effects on mature rRNA and pre-rRNA occurred with amdinocillin than without” value in test [2] (ceftriaxone (8 pg/ml), amdinocillin 1 μg/ml, strain EC103) is 60 min.
For `O=C(N[C@H](CO)[C@H](O)c1ccc([N+](=O)[O-])cc1)C(Cl)Cl` [chloramphenicol], in test [5], the “effect on mature rRNA level” value is reported as “decrease” and the “effect on pre-rRNA level” value is on record as “selective increase”.
Take `CCN1CCN(C(=O)N[C@@H](C(=O)N[C@@H]2C(=O)N3[C@@H]2SC(C)(C)[C@@H]3C(=O)O)c2ccccc2)C(=O)C1=O` [piperacillin]: in test [2], the “differentiation” value is given as “enables rapid differentiation”.
On to gentamicin, for which, in test [5], the “effect on mature rRNA level” value is “decrease” and the “effect on pre-rRNA level” value was “without affecting”.
